Read-outs that look alike come from different tables or passages of the source.
Columns and labels:
[1] = target: T1, rhinovirus 3C protease from HRV serotype-14 (Human rhinovirus 14, UniProt P03303); assay: Inhibition of rhinovirus 3C protease activity (FRET assay), HRV-14; type: biochemical; details: read-out: Protease Inhibition kobs/I
T1 construct: Recombinant rhinovirus 3C proteases; made in house
Description: (§1) Stock solutions (50 mM, in DMSO) of various compounds were prepared; dilutions were in the same solvent. Recombinant rhinovirus 3C proteases (see Birch et al., “Purification of recombinant human rhinovirus 14 3C protease expressed in Escherichia coli,” Protein Expr. Pur. 1995, 6(5), 609–618) from serotypes 14, 16, and 2 were prepared by the following standard chromatographic procedures: (1) ion exchange using Q Sepharose Fast Flow from Pharmacia; (2) affinity chromatography using Affi-Gel Blue from Biorad; and (3) sizing using Sephadex G-100 from Pharmacia. Each assay sample contained 2% DMSO, 50 mM tris pH 7.6, 1 mM EDTA, a test compound at the indicated concentration, approximately 1 μM substrate, and 50–100 nM protease. The kobs/I values were obtained from reactions initiated by addition of enzyme rather than substrate. RVP activity was measured in the fluorescence resonance energy transfer assay. The substrate was (N-terminal) DABCYL-(Gly-Arg-Ala-Val-Phe-Gln-Gly-Pro-Val-Gly)-EDANS. In the uncleaved peptide, the EDANS fluorescence was quenched by the proximal DABCYL group. When the peptide was cleaved, the quenching was relieved, and activity was measured as an increase in fluorescence signal. In the Table, unless otherwise indicated, all data are for rhinovirus 3C protease from HRV serotype-14 (produced from the infectious cDNA clone constructed by Dr. Robert Rueckert, Institute for Molecular Virology, University of Wisconsin, Madison, Wis.). The data in the column designated kobs/[I] were measured from progress curves in enzyme start experiments.

[2] = target: T2, rhinovirus 3C protease (HRV-2) (Human rhinovirus 2, UniProt P04936); assay: Inhibition of rhinovirus 3C protease activity (FRET assay), HRV-2; type: biochemical; details: read-out: Protease Inhibition kobs/I
T2 construct: Recombinant rhinovirus 3C proteases; made in house
T2 sequence (P04936 1508-1690): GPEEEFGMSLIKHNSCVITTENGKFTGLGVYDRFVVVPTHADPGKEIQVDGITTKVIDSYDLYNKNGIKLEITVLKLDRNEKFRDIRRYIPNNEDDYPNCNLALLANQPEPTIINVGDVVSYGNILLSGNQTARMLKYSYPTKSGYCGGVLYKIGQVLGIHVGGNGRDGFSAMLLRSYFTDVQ
Description: as §1

[3] = Cytotoxicity in mock-infected H1-HeLa cells (XTT); type: cell-based; details: human, two days, read-out: Toxicity CC50
Description: (§2) In this cell protection assay, the ability of compounds to protect cells against HRV infection was measured by the XTT dye reduction method, which is described in Weislow et al., J. Natl. Cancer Inst. 1989, vol. 81, 577–586.
(§3) H1-HeLa cells were infected with HRV-14 at a multiplicity of infection (m.o.i.) of 0.13 (virus particles/cell) or mock-infected with medium only. Infected or mock-infected cells were resuspended at 8×10^5 cells per mL, and incubated with appropriate concentrations of the compounds to be tested. Two days later, XTT/PMS was added to test plates and the amount of formazan produced was quantified spectrophotometrically at 450/650 nm. The EC50 value was calculated as the concentration of compound that increased the percentage of formazan production in compound-treated, virus-infected cells to 50% of that produced by compound-free, mock-infected cells. The 50% cytotoxic dose (CC50) was calculated as the concentration of compound that decreased the percentage of formazan produced in compound-treated, mock-infected cells to 50% of that produced by compound-free, mock-infected cells.
(§4) All strains of human rhinovirus (HRV) for use in this assay were purchased from American Type Culture Collection (ATCC), except for HRV serotype-14 (produced from the infectious cDNA clone constructed by Dr. Robert Rueckert, Institute for Molecular Virology, University of Wisconsin, Madison, Wis.). HRV stocks were propagated and viral assays were performed in H1-HeLa cells (ATCC). Cells were grown in minimal essential medium with 10% fetal bovine serum, available from Life Technologies (Gaithersburg, Md.).

HRV-10 = assay: Antirhinoviral H1-HeLa cell culture assay (cell protection, XTT), HRV-10; type: cell-based; details: Human rhinovirus sp., HRV10, 48 h, HRV-10, H1-HeLa cells, two days
Description: as §2, §3, §4
(§5) The compounds were tested against control compounds WIN 51711, WIN 52084, and WIN 54954 (obtained from Sterling-Winthrop Pharmaceuticals), Pirodavir (obtained from Janssen Pharmaceuticals), and Pleconaril (prepared according to the method described in Diana et al., J. Med. Chem 1995, vol. 38, 1355). Antiviral data obtained for the test compounds are shown in the Table, where all data are for HRV serotype-14 unless otherwise noted in parentheses.

HRV-1A = assay: Antirhinoviral H1-HeLa cell culture assay (cell protection, XTT), HRV-1A; type: cell-based, human rhinovirus; details: Rhinovirus A, HRV1A, 48 h, H1-HeLa cells, two days
Description: as §2, §3, §4, §5

HRV-14 = assay: Antirhinoviral H1-HeLa cell culture assay (cell protection, XTT), HRV-14; type: cell-based, human rhinovirus; details: Rhinovirus B, read-out: Cell Protection EC50
Description: as §2, §3, §4, §5

HRV-2 = assay: Antirhinoviral H1-HeLa cell culture assay (cell protection, XTT), HRV-2; type: cell-based, human rhinovirus; details: Rhinovirus A, HRV2, 48 h, HRV-2, H1-HeLa cells, two days
Description: as §2, §3, §4, §5

[4] = HRV-14 3C protease, progress curves, enzyme start
[5] = HRV14, 48 h, HRV-14, H1-HeLa cells, XTT, two days

T1 sequence (P03303 1538-1719): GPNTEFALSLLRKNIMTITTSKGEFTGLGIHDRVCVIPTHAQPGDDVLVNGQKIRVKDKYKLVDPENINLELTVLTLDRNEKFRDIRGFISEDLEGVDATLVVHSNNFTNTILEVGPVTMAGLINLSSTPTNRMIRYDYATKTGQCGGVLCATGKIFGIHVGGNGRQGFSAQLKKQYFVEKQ

SMILES	kinact/KI [1, 4]	kinact/KI ([2]; HRV-2 3C protease, progress curves, enzyme start)	CC50 at 2 days [3]	EC50 (HRV-10)	EC50 (HRV-1A)	EC50 (HRV-14; [5])	kinact/KI [1]	EC50 (HRV-14; HRV14, H1-HeLa, 48 h)	EC50 (HRV-2)	kinact/KI [2]
CCOC(=O)/C=C/[C@H](C[C@@H]1CCNC1=O)NC(=O)c1ccc2ccc(O)cc2c1 [Compound 54, 4S-[(7-Hydroxy-naphthalene-2-carbonyl)-amino]-5-(2-oxo-pyrrolidin-3S-yl)-pent-2-enoic acid ethyl ester]	220 M⁻¹ s⁻¹	35 M⁻¹ s⁻¹	–	–	–	–	–	–	–	–
CCOC(=O)/C=C/[C@H](CCC(N)=O)NC(=O)c1cc2ccccc2s1 [Compound 26, 4S-[(benzo[b]thiophene-2-carbonyl)-amino]-6-carbamoyl-hex-2-enoic acid ethyl ester]	95 M⁻¹ s⁻¹	–	> 100 µM	12.4 µM	59 µM	1500 nM	–	–	–	–
CCOC(=O)/C=C/[C@H](CCC(N)=O)NC(=O)c1ccc2ccccc2c1 [Compound 25, 6-carbamoyl-4S-[(naphthalene-2-carbonyl)-amino]-hex-2-enoic acid ethyl ester]	150 M⁻¹ s⁻¹	–	> 100 µM	35 µM	22 µM	600 nM	–	–	–	–
CCOC(=O)/C=C/[C@H](C[C@@H]1CCNC1=O)NC(=O)/C=C/c1cc2c(cc1Br)OCO2 [Compound 49, 4S-[3-(6-Bromo-benzo[1,3]dioxol-5-yl)-acryloylamino]-5-(2-oxo-pyrrolidin-3S-yl)-pent-2-enoic acid ethyl ester]	–	–	> 100 µM	0.316 µM	2.51 µM	–	14400 M⁻¹ s⁻¹	490 nM	–	–
CCOC(=O)/C=C/[C@H](C[C@@H]1CCNC1=O)NC(=O)c1ccc2ccccc2c1 [Compound 1, 4S-[(naphthalene-2-carbonyl)-amino]-5-(2-oxo-pyrrolidin-3S-yl)-pent-2-enoic acid ethyl ester]	–	–	> 100 µM	–	–	–	1090 M⁻¹ s⁻¹	150 nM	1350 nM	110 M⁻¹ s⁻¹
CCOC(=O)/C=C/[C@H](C[C@@H]1CCNC1=O)NC(=O)/C=C/c1cccc(Br)c1 [Compound 3, 4S-[3-(3-bromo-phenyl)-acryloylamino]-5-(2-oxo-pyrrolidin-3S-yl)-pent-2-enoic acid ethyl ester]	–	–	> 10 µM	–	–	–	2560 M⁻¹ s⁻¹	1400 nM	–	–
CCOC(=O)/C=C/[C@H](C[C@@H]1CCNC1=O)NC(=O)/C=C/c1ccc(C)cc1 [Compound 12, 5-(2-oxo-pyrrolidin-3S-yl)-4S-(3-p-tolyl-acryloylamino)-pent-2-enoic acid ethyl ester]	–	–	> 10 µM	–	–	–	990 M⁻¹ s⁻¹	2770 nM	–	–
CCOC(=O)/C=C/[C@H](C[C@@H]1CCNC1=O)NC(=O)c1cc2cc(Br)ccc2[nH]1 [Compound 20]	–	–	> 10 µM	–	–	–	1370 M⁻¹ s⁻¹	4390 nM	–	–
CCOC(=O)/C=C/[C@H](CCC(N)=O)NC(=O)c1ccc(N(C)C)cc1 [Compound 27]	45 M⁻¹ s⁻¹	–	> 100 µM	–	–	3900 nM	–	–	–	–
CCOC(=O)/C=C/[C@H](C[C@@H]1CCNC1=O)NC(=O)c1ccc2cc(C)ccc2c1 [Compound 51, 4S-[(6-Methyl-naphthalene-2-carbonyl)-amino]-5-(2-oxo-pyrrolidin-3S-yl)-pent-2-enoic acid ethyl ester]	–	–	> 100 µM	–	–	–	5020 M⁻¹ s⁻¹	880 nM	–	–
CCOC(=O)/C=C/[C@H](C[C@@H]1CCNC1=O)NC(=O)Nc1cc(OC)cc(OC)c1 [Compound 57, 4S-[3-(3,5-dimethoxy-phenyl)ureido]-5-(2-oxo-pyrrolidin-3S-yl)-pent-2-enoic acid ethyl ester]	–	–	> 10 µM	–	–	–	388 M⁻¹ s⁻¹	> 10000 nM	–	–
CCOC(=O)/C=C/[C@H](CCC(N)=O)NC(=O)/C=C/c1cccc(Br)c1 [Compound 30, 4S-[3-(3-bromophenyl)-acryloylamino]-6-carbamoyl-hex-2-enoic acid ethyl ester]	345 M⁻¹ s⁻¹	–	> 100 µM	–	–	3200 nM	–	–	–	–
CCOC(=O)/C=C/[C@H](CCC(N)=O)NC(=O)/C=C/c1ccccc1 [Compound 29, 6-carbamoyl-4S-(3-phenyl-acryloylamino)-hex-2-enoic acid ethyl ester]	62 M⁻¹ s⁻¹	–	> 100 µM	–	–	31600 nM	–	–	–	–
CCOC(=O)/C=C/[C@H](C[C@@H]1CCNC1=O)NC(=O)C1=Cc2cc(Br)ccc2OC1 [Compound 52, 4S-[(6-Bromo-2H-chromene-3-carbonyl)-amino]-5-(2-oxo-pyrrolidin-3S-yl)-pent-2-enoic acid ethyl ester]	–	–	65 µM	0.546 µM	5.07 µM	–	25000 M⁻¹ s⁻¹	175 nM	–	372 M⁻¹ s⁻¹
CCOC(=O)/C=C/[C@H](C[C@@H]1CCNC1=O)NC(=O)/C=C/c1ccc([N+](=O)[O-])cc1 [Compound 15, 4S-[3-(4-nitro-phenyl)-acryloylamino]-5-(2-oxo-pyrrolidin-3S-yl)-pent-2-enoic acid ethyl ester]	–	–	> 10 µM	–	–	–	2020 M⁻¹ s⁻¹	1530 nM	–	–
CCOC(=O)/C=C/[C@H](C[C@@H]1CCNC1=O)NC(=O)/C=C/c1ccc(C)c(Br)c1 [Compound 23, 4S-[3-(3-bromo-4-methyl-phenyl)-acryloylamino]-5-(2-oxo-pyrrolidin-3S-yl)-pent-2-enoic acid ethyl ester]	–	–	> 10 µM	–	–	–	4080 M⁻¹ s⁻¹	1290 nM	–	–
CCOC(=O)/C=C/[C@H](CCC(N)=O)NC(=O)c1ccccc1 [Compound 34]	10 M⁻¹ s⁻¹	–	> 100 µM	–	–	> 100000 nM	–	–	–	–
CCOC(=O)/C=C/[C@H](C[C@@H]1CCNC1=O)NC(=O)c1cc(-c2ccccc2)oc1C [Compound 45, 4S-[(2-Methyl-5-phenyl-furan-3-carbonyl)-amino]-5-(2-oxo-pyrrolidin-3S-yl)-pent-2-enoic acid ethyl ester]	–	–	> 100 µM	–	–	–	4740 M⁻¹ s⁻¹	1940 nM	–	–
